According to patent US20260055080A1, “NOVEL SUBSTITUTED QUINOLINE AND TETRAHYDRONAPHTHALENE CARBOXYLIC ACID DERIVATIVES AND THERAPEUTIC USES THEREOF” (SANOFI, priority 2022, published 2026):

Target: T1, ERα (Homo sapiens, UniProt P03372)
T1 construct: measured to determine the levels of ERα and DNA respectively; host or cells: MCF7
T1 sequence (P03372 1-595): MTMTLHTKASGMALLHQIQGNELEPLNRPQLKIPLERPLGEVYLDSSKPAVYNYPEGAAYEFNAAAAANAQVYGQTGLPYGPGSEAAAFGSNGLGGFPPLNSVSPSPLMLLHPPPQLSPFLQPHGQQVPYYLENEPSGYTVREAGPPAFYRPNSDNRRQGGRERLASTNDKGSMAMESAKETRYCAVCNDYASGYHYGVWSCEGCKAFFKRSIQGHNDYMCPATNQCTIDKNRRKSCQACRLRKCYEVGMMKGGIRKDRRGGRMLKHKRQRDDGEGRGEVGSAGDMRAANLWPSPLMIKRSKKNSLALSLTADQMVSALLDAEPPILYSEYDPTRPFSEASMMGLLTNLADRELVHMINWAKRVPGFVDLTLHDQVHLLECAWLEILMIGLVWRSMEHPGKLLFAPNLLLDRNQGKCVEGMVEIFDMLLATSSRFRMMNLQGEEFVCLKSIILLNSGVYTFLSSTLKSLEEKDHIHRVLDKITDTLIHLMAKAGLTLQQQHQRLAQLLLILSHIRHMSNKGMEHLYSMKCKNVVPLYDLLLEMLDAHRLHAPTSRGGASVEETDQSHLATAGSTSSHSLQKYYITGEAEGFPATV
Assay: Estrogen receptor degradation activity: breast cancer cell ERα in cell western assay
Type: cell-based
Conditions: MCF7 cells; for % Degradation At 0.3 μM: 4 hours, relative to fulvestrant 0.1 μM positive control; for DC50: 4 hours post compound addition, concentration which degrades 50% of the estrogen receptor, read-out: Degradation IC50
Experimental: Test: Estrogen Receptor Degradation Activity
Said test involves measuring the in vitro degradation activity of the compounds of the Table 1.
The measurements of the degradation activities were made using a breast cancer cell ERα in cell western assay as described hereunder.
MCF7 cells (ATCC) were seeded in 384 wells microplate (collagen coated) at a concentration of 10000 cells/30 μL per well in red phenol free MEM alpha medium (invitrogen) containing 5% charcoal dextran striped FBS. The following day, 9 points serial 1:5 dilution of each compound was added to the cells in 2.5 μL at final concentrations ranging from 0.3-0.0000018 μM (in Table 2), or 0.1 μM for fulvestrant (using as positive control). At 4 hours post compound addition the cells were fixed by adding 25 μL of formalin (final concentration 5% formalin containing 0.1% triton) for 10 minutes at room temperature and then washed twice with PBS. Then, 50 μL of LI-COR blocking buffer containing 0.1% Triton was added to plate for 30 minutes at room temperature. LI-COR blocking buffer was removed and cells were incubated overnight at cold room with 50 μL anti-ER rabbit monoclonal antibody (Thermo scientific MA1-39540) diluted at 1:1000 in LI-COR blocking buffer containing 0.1% tween-20. Wells which were treated with blocking buffer but no antibody were used as background control. Wells were washed twice with PBS (0.1% tween-20) and incubated at 37° C. for 60 minutes in LI-COR (0.1% tween-20) containing goat anti-rabbit antibody Alexa 488 (1:1000) and Syto-64 a DNA dye (2 μM final concentration). Cells were then washed 3 times in PBS and scanned in ACUMEN explorer (TTP-Labtech). Integrated intensities in the green fluorescence and red fluorescence were measured to determine the levels of ERα and DNA respectively.
The degradation activity with respect to estrogen receptors in this test is given by the concentration which degrades 50% of the estrogen receptor (or IC50) in nM.
The % of ERα levels decrease were determined as follows: % inhibition=100*(1-(sample-fulvestrant: DMSO-fulvestrant)).

% Degradation At 0.3 μM	DC50	SMILES
51%	0.136 µM	O=C(O)c1ccc2c(C(=O)c3ccc(OC4CN(CCCF)C4)cc3)c(-c3ccc(C(F)(F)F)cc3F)cnc2c1 [Compound 1]
62%	0.196 µM	O=C(O)c1ccc2c(C(=O)c3ccc(OCCN4CC(CF)C4)cc3)c(-c3ccc(C(F)(F)F)cc3F)cnc2c1 [Compound 2, 3-(2-fluoro-4-(trifluoromethyl)phenyl)-4-(4-(2-(3-(fluoromethyl)azetidin-1-yl)ethoxy)benzoyl)quinoline-7-carboxylic acid]
49%	0.252 µM	CCNCCc1ccc(CN(CC)c2cc(OC)ccc2[C@@H]2CCc3cc(C(=O)O)ccc3C2)cc1 [Compound 3, (R)-6-(2-(ethyl(4-(2-(ethylamino)ethyl)benzyl)amino)-4-methoxyphenyl)-5,6,7,8-tetrahydronaphthalene-2-carboxylic acid]
